Measurements: ChEMBL document CHEMBL1201862, “PubChem BioAssay data set” (2004)
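Step 1: Grow cells in 96-well plates. Step 2: Expose to compound for 48 hours at 5 concentrations. Step 3: Interpolate endpoints linearly; if unreached, use highest concentration. Abbreviation: GI50, concentration required for 50% inhibition of growth.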 Active and inactive are the calls of the source. Cut-off read from the data, not from the text of the source: active = GI50 up to about 1.1 µM and inactive = higher.

Experiments:
Experiment in all cases: NCI anticancer screen, dose series, 48 h
BT-549 = system: BT-549
NCI-H460 = system: NCI-H460
HCT-15 = system: HCT-15
M14 = system: M14
HL-60 = system: HL-60
MDA-N = system: MDA-N
SNB-75 = system: SNB-75
TK-10 = system: TK-10
U-251 = system: U-251
Malme-3M = system: Malme-3M
UO-31 = system: UO-31
EKVX = system: EKVX
OVCAR-8 = system: OVCAR-8
OVCAR-5 = system: OVCAR-5
SF-295 = system: SF-295
OVCAR-3 = system: OVCAR-3
786-0 = system: 786-0
NCI/ADR-RES = system: NCI/ADR-RES
NCI-H23 = system: NCI-H23
MOLT-4 = system: MOLT-4
A498 = system: A498
IGROV-1 = system: IGROV-1
NCI-H226 = system: NCI-H226
SN12C = system: SN12C
COLO 205 = system: COLO 205
LOX IMVI = system: LOX IMVI
MDA-MB-231 = system: MDA-MB-231
OVCAR-4 = system: OVCAR-4
T47D = system: T47D
SK-MEL-5 = system: SK-MEL-5
A549 = system: A549
K562 = system: K562
SK-OV-3 = system: SK-OV-3
HCC 2998 = system: HCC 2998
UACC-62 = system: UACC-62
CAKI-1 = system: CAKI-1
DU-145 = system: DU-145
SF-539 = system: SF-539
RXF 393 = system: RXF 393
HT-29 = system: HT-29
CCRF-CEM = system: CCRF-CEM
SNB-19 = system: SNB-19
HCT-116 = system: HCT-116
SR = system: SR
Hs-578T = system: Hs-578T
SK-MEL-28 = system: SK-MEL-28
HOP-92 = system: HOP-92
SF-268 = system: SF-268
MCF7 = system: MCF7
MDA-MB-435 = system: MDA-MB-435
ACHN = system: ACHN
SK-MEL-2 = system: SK-MEL-2
NCI-H522 = system: NCI-H522
KM12 = system: KM12
RPMI-8226 = system: RPMI-8226
HOP-62 = system: HOP-62
SW-620 = system: SW-620
UACC-257 = system: UACC-257
PC-3 = system: PC-3
HOP-18 = system: HOP-18
DMS-273 = system: DMS-273
DMS-114 = system: DMS-114
DLD-1 = system: DLD-1
M19-MEL = system: M19-MEL
LXFL 529 = system: LXFL 529
SNB-78 = system: SNB-78
KM-20L2 = system: KM-20L2

Measured: GI50

O=C1C2CC[C@@H]3C(=O)C(Cl)(Cl)[C@@H]3CCC2C1(Cl)Cl (stereo partly drawn)
inactive: BT-549 > 100 µM | NCI-H460 > 100 µM | M14 > 100 µM | HL-60 6.17 µM | MDA-N > 72.4 µM | SNB-75 > 100 µM | TK-10 > 100 µM | U-251 > 100 µM | Malme-3M > 100 µM | UO-31 > 100 µM | EKVX > 100 µM | OVCAR-8 > 100 µM | OVCAR-5 > 100 µM | SF-295 > 100 µM | OVCAR-3 46.6 µM | 786-0 > 100 µM | NCI/ADR-RES > 100 µM | NCI-H23 > 100 µM | MOLT-4 26.2 µM | A498 > 100 µM | IGROV-1 > 100 µM | NCI-H226 > 100 µM | SN12C > 100 µM | COLO 205 71 µM | LOX IMVI 44 µM | MDA-MB-231 > 100 µM | OVCAR-4 > 100 µM | T47D > 100 µM | SK-MEL-5 > 100 µM | A549 > 100 µM | K562 44.8 µM | SK-OV-3 > 100 µM | HCC 2998 > 100 µM | UACC-62 > 86.9 µM | CAKI-1 > 100 µM | DU-145 > 100 µM | SF-539 > 44.4 µM | RXF 393 > 87.7 µM | HT-29 > 100 µM | CCRF-CEM 23.3 µM | SNB-19 > 100 µM | HCT-116 > 86.5 µM | SR 26.9 µM | Hs-578T > 100 µM | SK-MEL-28 > 100 µM | HOP-92 > 100 µM | SF-268 > 100 µM | MCF7 42.8 µM | MDA-MB-435 > 100 µM | ACHN > 100 µM | SK-MEL-2 > 100 µM | NCI-H522 > 58.7 µM | KM12 > 100 µM | RPMI-8226 32.4 µM | HOP-62 3.24 µM | SW-620 > 100 µM | UACC-257 > 100 µM | PC-3 > 100 µM
98.6 µM: HCT-15

CC(C)(C)C1C=C(Sc2ccccc2)C(=O)O1 (stereo not drawn)
43.3 µM: HCT-15
inactive: NCI-H460 40.4 µM | M14 62.1 µM | HL-60 24.9 µM | SNB-75 22.8 µM | TK-10 60.5 µM | U-251 54 µM | Malme-3M 97.5 µM | UO-31 33.7 µM | EKVX 47 µM | OVCAR-8 37.3 µM | OVCAR-5 34.2 µM | HOP-18 75.9 µM | SF-295 35.2 µM | OVCAR-3 42.8 µM | 786-0 68.9 µM | NCI-H23 33.5 µM | MOLT-4 30.3 µM | A498 41.9 µM | IGROV-1 48.9 µM | DMS-273 40.7 µM | NCI-H226 54.7 µM | SN12C 36.2 µM | COLO 205 26.9 µM | DMS-114 32.8 µM | LOX IMVI 37.6 µM | DLD-1 42.5 µM | OVCAR-4 63.8 µM | A549 33.3 µM | K562 49.3 µM | SK-OV-3 58.9 µM | HCC 2998 58.9 µM | M19-MEL 48.9 µM | UACC-62 36.7 µM | CAKI-1 45.6 µM | SF-539 44.1 µM | HT-29 49.8 µM | CCRF-CEM 37.4 µM | SNB-19 57.9 µM | HCT-116 40.1 µM | LXFL 529 34.8 µM | SNB-78 63 µM | SK-MEL-28 83.6 µM | HOP-92 29.2 µM | SF-268 37.2 µM | ACHN 32.1 µM | KM-20L2 39.1 µM | SK-MEL-2 > 100 µM | NCI-H522 32.7 µM | KM12 40.6 µM | RPMI-8226 36 µM | HOP-62 45.4 µM | SW-620 80.5 µM | UACC-257 31.8 µM
